Test [1] addresses T1, human CB2 receptors (Homo sapiens, UniProt P34972).
T1 construct: host or cells: CHO cells
In words: Cyclic AMP assay, hCB2 CHO cells. The note with it: for agonist behaviour (inhibition of forskolin-stimulated cAMP production): CHO cells, human CB2. It is filed as cell-based. On the procedure: CHO cells transfected with human CB1 or CB2 receptors were washed with PBS, detached with trypsin, and centrifuged for 10 min at 200 × g. The pellet containing 1 × 10^6 cells/assay was suspended in 0.5 ml of buffer containing150 mM NaCl, 2.7 mM KCl, 0.37 mM NaH2PO4, 1 mM MgSO4, 1 mM CaCl2, 5 mM HEPES, 10 mM MgCl2, and 5 mM glucose, at pH 7.4 and 37 °C. Cells were pre-incubated with 0.5 mM of the phosphodiesterase inhibitor 4-(3-butoxy-4-methoxybenzyl)-2-imidazolidinone (Ro 20–1724;) for 10 min in a shaking bath at 37 °C. The potency of the examined compounds to inhibit adenylate cyclase activity was determined in the presence of forskolin 1-µM stimulation. The reaction was terminated by the addition of cold 6% trichloroacetic acid (TCA) and the final aqueous solution was tested for cyclic AMP levels by a competition protein binding assay (AlphaScreen cAMP Detection Kit, Cat. Number 6760635D, Perkin Elmer Life and Analytical Sciences, USA) following the manufacturer’s instructions; Vincenzi et al. [2013]).
(§1) The protein concentration was determined according to a Bio-Rad method (500–0006; Bio-Rad Laboratories, Hercules, CA, USA) with bovine serum albumin as a reference standard. Inhibitory binding constants, Ki, were calculated from the IC50 values according to the Cheng and Prusoff equation: Ki = IC50/(1 + [C*]/KD*), where [C*] is the concentration of the radioligand and KD* its dissociation constant. Functional experiments were analyzed by non-linear regression analysis using the equation for a sigmoid concentration–response curve (GraphPad Prism, USA). All the data are expressed as the mean ± SEM of three independent experiments.
Background: Changes in cAMP serve as a functional read-out for many G protein-coupled receptors.

In test [2] the target is T1, human CB2 receptors. Briefly: [3H]-CP-55,940 competition binding, hCB2 CHO membranes. Here is the method: CHO cells transfected with human CB1 or CB2 receptors (Perkin Elmer Life and Analytical Sciences, USA) were grown adherently and maintained in Ham’s F12 containing 10% fetal bovine serum, penicillin (100 U/ml), streptomycin (100 µg/ml), and Geneticin (G418, 0.4 mg/ml) at 37 °C in 5% CO2/95% air. To obtain membranes, cells were washed with PBS and scraped off with ice-cold hypotonic buffer (5 mM Tris HCl, 2 mM EDTA, pH 7.4). The cell suspension was homogenized with a Polytron and then centrifuged for 30 min at 40,000 × g. […]
Competition binding experiments were carried out incubating 0.5 nM [^3H]-CP-55,940 (Perkin Elmer Life and Analytical Sciences, USA) and different concentrations of the tested compounds for 90 or 60 min at 30 °C for CB1 or CB2 receptors, respectively. […] Non-specific binding was determined in the presence of 1 mM WIN 55,212–2 (Vincenzi et al. [2013]). Bound and free radioactivity were separated by filtering the assay mixture through Whatman GF/C glass fiber filters using a Brandel cell harvester (Brandel Instruments, Unterföhring, Germany). The filter-bound radioactivity was counted using a Packard Tri Carb 2810 TR scintillation counter (Perkin Elmer Life and Analytical Sciences, USA).
The protein concentration was determined according to a Bio-Rad method (500–0006; Bio-Rad Laboratories, Hercules, CA, USA) with bovine serum albumin as a reference standard. […]

In a further test the target is CB2 receptors. Set-up: method as in Howlett et al. [2002]; Hess et al. [2015]. To be noted: ref Howlett et al. [2002]; Hess et al. [2015]; read-out: CB2 receptor Ki; cited from earlier work.
The next test concerns the target T2, murine CB1 receptors (Mus musculus, UniProt P47746).
T2 construct: membranes from mouse brain and spleen were used, respectively; from tissue
In words: [3H]-CP-55,940 competition binding, mouse brain (cortex) membranes. To be noted: for selectivity index (ratio Ki CB2 / Ki CB1): murine CB receptors. On the procedure:
To evaluate the affinity of synthetic cannabinoids for murine CB1 and CB2 receptors, membranes from mouse brain and spleen were used, respectively. Following excision from mice, tissues were suspended in 50 mM Tris HCl, pH 7.4 at 4 °C. The mouse brain and spleen tissues were homogenized with a Polytron and subsequently centrifuged for 10 min at 2000 × g. The resulting supernatants were filtered, centrifuged for 20 min at 40,000 × g and the pellets were used for competition binding experiments (Vincenzi et al. [2013]).
(§2) Competition binding experiments were carried out incubating 0.5 nM [^3H]-CP-55,940 (Perkin Elmer Life and Analytical Sciences, USA) and different concentrations of the tested compounds for 90 or 60 min at 30 °C for CB1 or CB2 receptors, respectively. For human cannabinoid receptors, membranes obtained from CHO cells transfected with human CB1 or CB2 receptors (2 µg protein/100 µl) were used. Competition binding experiments at murine cannabinoid receptors were performed with mouse brain membranes (40 µg protein/100 µl) or with mouse spleen membranes (80 µg protein/100 µl) for CB1 receptors or CB2 receptors, respectively. Non-specific binding was determined in the presence of 1 mM WIN 55,212–2 (Vincenzi et al. [2013]). Bound and free radioactivity were separated by filtering the assay mixture through Whatman GF/C glass fiber filters using a Brandel cell harvester (Brandel Instruments, Unterföhring, Germany). The filter-bound radioactivity was counted using a Packard Tri Carb 2810 TR scintillation counter (Perkin Elmer Life and Analytical Sciences, USA).
as §1

A further test deals with T3, human CB1 receptors (Homo sapiens, UniProt P21554).
T3 construct: host or cells: CHO cells
T3 sequence (P21554 whole entry): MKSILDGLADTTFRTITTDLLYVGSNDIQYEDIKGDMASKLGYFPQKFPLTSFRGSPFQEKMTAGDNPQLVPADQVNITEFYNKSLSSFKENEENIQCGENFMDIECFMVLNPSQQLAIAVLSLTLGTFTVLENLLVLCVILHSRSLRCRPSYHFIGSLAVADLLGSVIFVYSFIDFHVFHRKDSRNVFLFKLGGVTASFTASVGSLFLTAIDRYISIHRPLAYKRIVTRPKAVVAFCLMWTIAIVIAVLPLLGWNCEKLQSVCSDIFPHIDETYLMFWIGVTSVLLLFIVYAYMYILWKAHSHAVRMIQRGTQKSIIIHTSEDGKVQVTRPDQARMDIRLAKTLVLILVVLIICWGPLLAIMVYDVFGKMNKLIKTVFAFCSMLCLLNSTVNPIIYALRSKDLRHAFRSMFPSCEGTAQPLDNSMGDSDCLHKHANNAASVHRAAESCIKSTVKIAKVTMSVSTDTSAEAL
In words: [3H]-CP-55,940 competition binding, hCB1 CHO membranes. The note with it: for selectivity index (ratio Ki CB2 / Ki CB1): human CB receptors. Here is the method:
CHO cells transfected with human CB1 or CB2 receptors (Perkin Elmer Life and Analytical Sciences, USA) were grown adherently and maintained in Ham’s F12 containing 10% fetal bovine serum, penicillin (100 U/ml), streptomycin (100 µg/ml), and Geneticin (G418, 0.4 mg/ml) at 37 °C in 5% CO2/95% air. To obtain membranes, cells were washed with PBS and scraped off with ice-cold hypotonic buffer (5 mM Tris HCl, 2 mM EDTA, pH 7.4). The cell suspension was homogenized with a Polytron and then centrifuged for 30 min at 40,000 × g. The membrane pellet was suspended in 50 mM Tris HCl buffer (pH 7.4) containing 2.5 mM EDTA, 5 mM MgCl2, 0.5% BSA for CB1 receptors or in 50 mM Tris HCl (pH 7.4), 1 mM EDTA, 5 mM MgCl2, 0.5% BSA for CB2 receptors (Vincenzi et al. [2013]).
as §2, §1

For a further test, the target named is CB1 receptors. Set-up: method as in Howlett et al. [2002]; Hess et al. [2015]. The note with it: ref Howlett et al. [2002]; Hess et al. [2015]; read-out: CB1 receptor Ki; cited from earlier work.

T2 sequence (P47746 whole entry): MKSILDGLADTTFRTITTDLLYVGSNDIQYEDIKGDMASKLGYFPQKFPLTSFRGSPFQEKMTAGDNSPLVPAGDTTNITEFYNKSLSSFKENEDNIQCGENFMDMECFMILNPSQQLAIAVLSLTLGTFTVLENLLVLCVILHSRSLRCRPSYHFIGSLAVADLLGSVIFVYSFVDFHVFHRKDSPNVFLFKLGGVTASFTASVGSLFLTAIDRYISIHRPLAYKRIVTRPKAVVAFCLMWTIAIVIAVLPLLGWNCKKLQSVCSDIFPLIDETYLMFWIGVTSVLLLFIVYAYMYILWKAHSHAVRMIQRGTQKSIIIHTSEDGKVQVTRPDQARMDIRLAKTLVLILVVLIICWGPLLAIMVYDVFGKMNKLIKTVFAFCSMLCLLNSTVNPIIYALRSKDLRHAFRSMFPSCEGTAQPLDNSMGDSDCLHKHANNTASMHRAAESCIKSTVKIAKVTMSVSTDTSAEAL
T1 sequence (P34972 whole entry): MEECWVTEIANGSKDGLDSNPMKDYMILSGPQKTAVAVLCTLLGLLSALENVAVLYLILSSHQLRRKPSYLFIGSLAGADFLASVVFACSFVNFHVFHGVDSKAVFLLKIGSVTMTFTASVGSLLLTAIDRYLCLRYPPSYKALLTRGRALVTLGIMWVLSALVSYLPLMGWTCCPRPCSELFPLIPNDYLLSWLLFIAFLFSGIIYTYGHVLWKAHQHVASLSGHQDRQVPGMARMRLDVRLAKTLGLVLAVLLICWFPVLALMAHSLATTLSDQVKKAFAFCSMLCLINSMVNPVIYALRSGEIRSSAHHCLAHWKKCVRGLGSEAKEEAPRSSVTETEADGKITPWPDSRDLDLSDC

One may read the IC50 as the midpoint of a concentration-inhibition curve. A high value points to weaker potency. One may read the Ki as the equilibrium dissociation constant of an inhibitor or competing ligand from its target. On human CB2 receptors [1], `O=C(c1cccc2ccccc12)c1cn(CCCCCF)c2ccccc12` [AM-2201, 1-[(5-Fluoropentyl)-1H-indol-3-yl](1-naphthylenyl) methanone] showed an IC50 of 31.8 ± 2.9 nM. On human CB2 receptors [1], the “agonist behaviour (inhibition of forskolin-stimulated cAMP production)” value is “full agonists”. Also, the Ki at human CB2 receptors [2] was 16.4 ± 1.5 nM; at CB2 receptors it was 2.6 nM; at murine CB1 receptors it was 1.96 ± 0.13 nM; at human CB1 receptors, 1.66 ± 0.13 nM; at CB1 receptors, 1 nM. Besides, the “selectivity index (ratio Ki CB2 / Ki CB1)” value is 7.4 at murine CB1 receptors and 9.9 on human CB1 receptors.
With `Cc1ccc(C(=O)c2cn(CCCCCF)c3ccccc23)c2ccccc12` [MAM-2201, 1-[(5-fluoropentyl)-1H-indol-3-yl](4-methyl-1-naphthalenyl) methanone], the IC50 against human CB2 receptors [1] is 22.4 ± 3.8 nM. Moreover, at human CB2 receptors [1], the “agonist behaviour (inhibition of forskolin-stimulated cAMP production)” value is listed as “full agonists”. Moreover, the Ki is 10.3 ± 2.1 nM on human CB2 receptors [2]; 0.582 ± 0.123 nM at CB2 receptors; 1.07 ± 0.23 nM on murine CB1 receptors; 1.11 ± 0.12 nM at human CB1 receptors; 2.07 ± 0.82 nM at CB1 receptors. The “selectivity index (ratio Ki CB2 / Ki CB1)” value at murine CB1 receptors amounted to 9.0; on human CB1 receptors, 9.3.

These data come from PMC10272271, “MAM-2201 acute administration impairs motor, sensorimotor, prepulse inhibition, and memory functions in mice: a comparison with its analogue AM-2201” (Psychopharmacology, 2023).
